Here are results for 2 molecules from patent US12102631B2, “Quinolylnitrones for the treatment and prevention of a cerebral stroke or ischaemia” (ISQUAEMIA BIOTECH, S.L., priority 2018, dated 2024).

The test system of assay [1] is tMCAO in C57BL/6 mice. The following applies: 40 mg/kg; 48 h after treatment; earlier report of the group; cited from earlier work.
Assay [2] relates to primary neuronal cultures subjected to OGD. Description: Lipid peroxidation (MDA) in primary neuronal cultures after OGD. It counts as cell-based, rat. The following applies: 4 h recovery after 4 h OGD; significant at 100 μM. The method, then:
Lipid peroxidation. Lipid peroxidation was evaluated by the detection of end products such as malondialdehyde (MDA) as a result of oxidative attack to polyunsaturated lipids. Lipid peroxidation was determined by the reaction of MDA with thiobarbituric acid (TBA) to form a colorimetric/fluorometric product, proportional to the MDA present. After recovery period for 4 h, cells (1.5×10^6) were lysed and centrifuged according to the supplier instructions (Sigma, MAK085), and then the thiobarbituric acid was added to the supernatant and mixed in a vortex. The samples were incubated at 95° C. for 60 min, cooled to room temperature and then n-butanol and 5M NaCl were added in a reaction mixture 8:3:1 (v/v) sample:n-butanol:NaCl. After mixed in a vortex, the samples were centrifuged, the n-butanol layer was taken and evaporated, the MDA-TBA adducts were dissolve in water and the absorbance was measured at 540 nm.
Exposure of neuronal cultures to 4 h OGD induced significant ROS generation after 2 h recovery in normoxic and normoglycemic conditions (R2 h) (210%, p<0.005 compared with 100% control) (FIG. 5A). […] ROS generation may induce lipid peroxidation and cell membrane damage. […]

In assay [3] the test system is Carrageenan-induced rat paw edema. Description: Inhibition of Carrageenan-induced rat paw edema. The class given is in vivo, Fisher 344 rats. The note with it: 0.01 mmol/kg intraperitoneally; 3.5 h after Carrageenan. The method, then: Inhibition of the Carrageenan-induced edema. Edema was induced in the right hind paw of Fisher 344 rats (150-200 g) by the intradermal injection of 0.1 mL 2% Carrageenan in water. Both sexes were used. Females pregnant were excluded. Each group was composed of 6 animals. The experiment was performed twice for validation. The animals, which have been bred in our laboratory, were housed under standard conditions and received a diet of commercial food pellets and water ad libitum during the maintenance, but they were entirely fasted during the experiment period. Nitrone 23 as well as of the standard drug indomethacin in 0.01 mmol/kg body weight, were diluted in water with few drops of Tween 80 and ground in a mortar before use and they were given intraperitoneally simultaneously with the Carrageenan injection. The rats were euthanized 3.5 h after Carrageenan administration. The difference between the weight of the injected and uninjected paws was calculated for each animal. The change in paw weight was compared with that in control animals (treated with water/or Tween-water) and expressed as a percent inhibition of the edema % ICPE values (Table 2). Values % ICPE are the mean from two different experiments (n=6 animals each time) with a standard error of the mean less than 10%.
On the technique in general: The carrageenan paw model is a standard test of acute inflammation.

In assay [4] the test system is tMCAO in C57BL/6 mice. Description: Infarct size (TTC staining) after tMCAO. The class given is in vivo. The following applies: 2.0 mg/kg; 48 h after tMCAO. The method, then:
Animal model of focal cerebral ischemia. Transient occlusion of a distal branch of the middle cerebral artery (tMCAO) was induced in male C57BL/6 mice (9-12 week old, Charles River) as previously described.^57 The animals were housed in a light/dark cycle (12 hour), humidity and temperature (22±2° C.) controlled environment with food and water available ad libitum. Briefly, mice were anesthetized with 4% isoflurane for induction and 1.5-2% isoflurane for maintenance (in 79% N2/21% O2). After drilling a small hole on the temporal bone, the middle cerebral artery (MCA) was compressed for 60 min with a 30-G needle using a micromanipulator. During the surgery, body temperature was maintained between 37.0±0.5° C. using a homoeothermic blanket and CBF was monitored using laser-Doppler flowmetry to confirm MCA occlusion. […]
Infarct volume evaluation. The size of infarction was evaluated at 48 hours after MCAO using 2,3,5-tetrazolium chloride (TTC) staining.^58 Mice were sacrificed by transcardial perfusion with ice-cold saline under deep anesthesia. […] The infarct areas were measured using the Image-J software and the infarct volume was determined by linear integration of the measured lesion areas and distances over the sections. […]
To examine the efficacy of QN 23 treatment in animals subjected to tMCAO, the infarct size was calculated 48 h after tMCAO model induction. […]

In assay [5] the test system is tMCAO in C57BL/6 mice. Description: Grip strength test after transient middle cerebral artery occlusion (tMCAO). It counts as in vivo. The method, then:
Animal model of focal cerebral ischemia. Transient occlusion of a distal branch of the middle cerebral artery (tMCAO) was induced in male C57BL/6 mice (9-12 week old, Charles River) as previously described.^57 The animals were housed in a light/dark cycle (12 hour), humidity and temperature (22±2° C.) controlled environment with food and water available ad libitum. Briefly, mice were anesthetized with 4% isoflurane for induction and 1.5-2% isoflurane for maintenance (in 79% N2/21% O2). After drilling a small hole on the temporal bone, the middle cerebral artery (MCA) was compressed for 60 min with a 30-G needle using a micromanipulator. During the surgery, body temperature was maintained between 37.0±0.5° C. using a homoeothermic blanket and CBF was monitored using laser-Doppler flowmetry to confirm MCA occlusion. Buprenorphine (0.05-0.1 mg/kg) was administered subcutaneously immediately before the procedure. A total of 28 mice were subjected to tMCAO according to the design of the study. We performed a power analysis to determine sample size (significance level set at 0.05, the power set at 0.8 (80%)) resulting in 8 animals per experimental group. Surgical inclusion criteria: a reduction in blood flow to <25% of baseline value during ischemia period, and a recovery of 75% of baseline value in the reperfusion period. […] Mice were randomly assigned using a randomization software to the following experimental groups (n=8 per group): vehicle (saline-EtOH 90:10 vol/vol), nitrone 23 (1.5 mg/kg) and nitrone 23 (2.0 mg/kg). The treatments were administered intraperitoneally at the onset of reperfusion period by a blinded investigator. […]
Motor-deficit evaluation, grip strength test. […] A total of 6 trials were conducted for each test and the strength value was calculated as the mean of them.
To assess the neuroprotective effect of QN 23 on experimental ischemic stroke, we induced a transient middle cerebral artery occlusion (tMCAO) and evaluated the motor deficits by grip strength test at 24 h and 48 h after the administration of QN 23. […]

SMILES strings stand for the structures. Read-outs that look alike come from different tables or passages of the source.

For `CC(C)(C)/[N+]([O-])=C/c1ccc(S(=O)(=O)O)cc1S(=O)(=O)O` [Compound 2, sodium (Z)-4-((tert-butyloxidoazanylidene)methyl)benzene-1,3-disulfonate, reference compound], the “improvement of grip strength” value in the assay with tMCAO in C57BL/6 mice [1] is recorded as 11.8%.

As to `COc1ccc2nc(Cl)c(/C=[N+](\[O-])C(C)(C)C)cc2c1` [Compound 23, (Z)—N-tert-Butyl-1-(2-chloro-6-methoxyquinolin-3-yl)methanimine oxide], in assay [2], the lipid peroxidation entry was “significantly decreased compared to R4 h value”. Besides, the ICPE % in assay [3] was found to be 48.5 ± 0.8 %. For the same molecule, in the assay with tMCAO in C57BL/6 mice [4], the “size of the ischemic lesion (in words)” value was “significantly lower than in vehicle treated animals”. For the same molecule, the “motor deficit compared with vehicle (in words)” value in the assay with tMCAO in C57BL/6 mice [5] (1.5 mg/kg and 2.0 mg/kg, 48 h after treatment) is on record as “significant decrease of motor deficit”. The “grip strength compared with vehicle (in words)” value in the assay with tMCAO in C57BL/6 mice [5] (2.0 mg/kg, 24 h after treatment) is “improvement in the grip strength which was significant”. Further, the “improvement of grip strength” value with tMCAO in C57BL/6 mice [5] (48 h after treatment) came to 20.7%.
